In ChEMBL document CHEMBL1132949, “Conceptually new 20-epi-22-oxa sulfone analogues of the hormone 1alpha,25-dihydroxyvitamin D(3): synthesis and biological evaluation” (2000):

Experiments:
PBMC = assay: In vitro inhibition of phytohemagglutininin-induced stimulation of human peripheral blood mononuclear cells proliferation; format: functional; conditions: read-out: ED50 (the source's name)
MCF7 = assay: In vitro activity on human breast adenocarcinoma cell line MCF-7 proliferation; format: functional; conditions: read-out: ED50 (the source's name)
[1] = target: T1, Vitamin D3 receptor (Homo sapiens) (UniProt P11473); assay: Binding affinity to Vitamin D3 receptor relative to 1,25D3
T1 sequence (whole entry): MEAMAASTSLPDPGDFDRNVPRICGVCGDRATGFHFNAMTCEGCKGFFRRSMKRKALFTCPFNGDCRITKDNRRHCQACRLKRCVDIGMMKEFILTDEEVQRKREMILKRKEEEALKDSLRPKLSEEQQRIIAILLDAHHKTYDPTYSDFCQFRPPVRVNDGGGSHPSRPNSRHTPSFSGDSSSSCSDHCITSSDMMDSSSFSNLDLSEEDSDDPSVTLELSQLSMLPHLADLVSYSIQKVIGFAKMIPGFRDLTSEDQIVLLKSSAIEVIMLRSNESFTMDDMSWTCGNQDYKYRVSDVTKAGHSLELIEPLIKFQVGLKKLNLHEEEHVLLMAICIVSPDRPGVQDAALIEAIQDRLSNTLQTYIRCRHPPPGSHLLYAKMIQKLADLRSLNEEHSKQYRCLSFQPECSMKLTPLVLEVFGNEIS

[2] = In vitro vitamin D receptor (VDR)-mediated transcriptional potency in rat osteosarcoma ROS 17/2.8 cells; format: functional; conditions: read-out: ED50 (the source's name)

Row | EC50 (MCF7) | Binding affinity [1] | EC50 [2] | Structure (SMILES) | EC50 (PBMC)
1 | 9.6 nM | 26% | 1.6 nM | C=C1/C(=C\C=C2/CCC[C@]3(C)[C@@H]([C@@H](C)OCCCS(=O)(=O)C(C)(C)C)CC[C@@H]23)C[C@H](O)C[C@H]1O | 8.4 nM
2 | – | 0.4% | > 100 nM | C=C1/C(=C\C=C2/CCC[C@]3(C)[C@@H]([C@@H](C)OCCCS(=O)(=O)C(C)(C)C)CC[C@@H]23)C[C@@H](O)C[C@@H]1O | –
3 | 0.27 nM | – | – | C=C1/C(=C\C=C2/CCC[C@]3(C)[C@@H]([C@@H](C)OCCCC(O)(CC)CC)CC[C@@H]23)C[C@@H](O)C[C@@H]1O [LEXACALCITOL] | –
